Experimental data taken from patent USRE48461E1, “Modulation of androgen receptor expression” (Ionis Pharmaceuticals, Inc., priority 2012, dated 2021).

Legend:
Type in all cases: cell-based, human
AR mRNA [1] = experiment: AR RNA expression in C4-2B cells (complete, CSS+DHT medium; Example 30); conditions: 48 hrs
Protocol: Cells were plated at 1,000 cells per well. […] ISIS 549148 was included as a negative control. […] After an incubation period of 48 hrs, RNA levels of AR, PSA and TMPRSS2 were measured.
Cells were plated at 2,000 cells per well and cultured in CSS media with 1 nM DHT. […] ISIS 549148 was included as a negative control. […] After an incubation period of 48 hrs, RNA levels of AR, PSA and TMPRSS2 were measured. In the absence of DHT, AR expression in C4-2 cells was 188%, PSA expression was 43% and TMPRSS2 expression was 27% compared to the untreated control.

C4-2B cells = experiment: C4-2B cell proliferation, ASO in combination with MDV3100 (Example 21); conditions: Homo sapiens, read-out: inhibited proliferation, MDV3100 with control oligonucleotide ISIS 549148
Protocol: C4-2B cells were plated at 1,000 cells per well. […] ISIS 549148 was included as a negative control. […] After a treatment period of 5 days, the proliferative capacity of the cancer cells was measured with CellTiter 96® AQueous One Solution Cell Proliferation kit (Promega), following the manufacturer's instructions. […]

TMPRSS2 mRNA = experiment: TMPRSS2 expression in C4-2 cells; conditions: 48 hrs; for Percent inhibition of TMPRSS2 expression: C4-2 cells, CSS + DHT medium
Protocol: Cells were plated at 1,000 cells per well. […] After an incubation period of 48 hrs, RNA levels of AR, PSA and TMPRSS2 were measured.
Cells were plated at 2,000 cells per well and cultured in CSS media with 1 nM DHT. […] After an incubation period of 48 hrs, RNA levels of AR, PSA and TMPRSS2 were measured.

AR mRNA [2] = experiment: AR RNA expression in LNCaP cells (complete, CSS, CSS+DHT medium); conditions: for Percent expression of AR in LNCaP cells cultured in CSS + DHT medium: CSS + DHT (1 nM) medium; for Percent expression of AR in LNCaP cells cultured in CSS + DHT medium / Percent expression of AR in LNCaP cells cultured in CSS medium: 48 hrs; for Percent expression of AR in LNCaP cells cultured in complete medium: 48 hours
Protocol: Cells were plated at 1,000 cells per well. […] After an incubation period of 48 hours, RNA levels of AR, PSA and TMPRSS2 were measured.
Cells were plated at 2,000 cells per well and cultured in phenol red-free RPMI supplemented with 5% charcoal stripped serum (Gibco) media for 16 hours. […] After an incubation period of 4 hrs, DHT was added to the medium to a final concentration of 1 nM as indicated. RNAs were collected 48 hrs later and levels of AR, PSA and TMPRSS2 were measured.

22RV1 cells = experiment: 22RV1 cell proliferation, ASO in combination with MDV3100 (Example 22); conditions: Homo sapiens, 22Rv1, read-out: inhibited proliferation, MDV3100 with control oligonucleotide ISIS 549148
Protocol: 22RV1 cells were plated at 2,000 cells per well in 5% CSS medium for 48 hours. […] ISIS 549148 was included as a negative control. […] After a treatment period of 3 days, the proliferative capacity of the cancer cells was measured with CellTiter 96® AQueous One Solution Cell Proliferation kit (Promega), following the manufacturer's instructions. Results are presented in Tables 58-62 as percent inhibition of proliferation, relative to non-treated cells.

LNCaP cells = experiment: LNCaP cell proliferation (complete or CSS+DHT medium); conditions: 5 days; for Proliferation (% untreated control) in LNCaP cells cultured in CSS + DHT medium: CSS + 1 nM DHT medium
Protocol: After a treatment period of 5 days in complete medium or CSS+1 nM DHT medium, the proliferative capacity of the cancer cells was measured with using CellTiter 96® AQueous One Solution or CellTiter-Glo® solution Cell Proliferation kit (Promega), following the manufacturer's instructions. […] Treatment with ISIS oligonucleotides in CSS+DHT medium reduced the proliferative capacity to a greater extent than treatment with MVD-3100. The proliferative capacity of cells cultured in CSS medium without DHT is 17% of untreated control levels.

Compound: CNC(=O)c1ccc(N2C(=S)N(c3ccc(C#N)c(C(F)(F)F)c3)C(=O)C2(C)C)cc1F [MDV3100, 4-(3-(4-cyano-3-(trifluoromethyl)phenyl)-5,5-dimethyl-4-oxo-2-thioxoimidazolidin-1-yl)-2-fluoro-N-methylbenzamide, reference compound]
- Percent expression of AR (AR mRNA [1]; CSS + DHT medium, 0.04 μM): 112%
- Percent expression of AR (AR mRNA [1]; CSS + DHT medium, 0.2 μM): 144%
- Percent expression of AR (AR mRNA [1]; CSS + DHT medium, 1 μM): 165%
- Percent expression of AR (AR mRNA [1]; CSS + DHT medium, 5.0 μM): 173%
- AR expression (AR mRNA [1]; CSS+DHT medium): increased AR expression in the cells
- Percent expression of AR (AR mRNA [1]; complete medium, 0.04 μM): 108%
- Percent expression of AR (AR mRNA [1]; complete medium, 0.2 μM): 121%
- Percent expression of AR (AR mRNA [1]; complete medium, 1 μM): 157%
- Percent expression of AR (AR mRNA [1]; complete medium, 5.0 μM): 182%
- AR expression (AR mRNA [1]; complete medium): increased AR expression in the cells
- inhibition at 0.08 µM (C4-2B cells): 0%
- inhibition at 0.4 µM (C4-2B cells): 6%
- Percent inhibition of TMPRSS2 expression (TMPRSS2 mRNA; 0.04 μM): 9%
- Percent inhibition of TMPRSS2 expression (TMPRSS2 mRNA; 0.2 μM): 0%
- Percent inhibition of TMPRSS2 expression (TMPRSS2 mRNA; 1 μM): 44%
- Percent inhibition of TMPRSS2 expression (TMPRSS2 mRNA; 5.0 μM): 78%
- Percent inhibition of TMPRSS2 expression in C4-2 cells cultured in complete medium (TMPRSS2 mRNA; 0.04 μM): 10%
- Percent inhibition of TMPRSS2 expression in C4-2 cells cultured in complete medium (TMPRSS2 mRNA; 0.2 μM): 20%
- Percent inhibition of TMPRSS2 expression in C4-2 cells cultured in complete medium (TMPRSS2 mRNA; 1 μM): 44%
- Percent inhibition of TMPRSS2 expression in C4-2 cells cultured in complete medium (TMPRSS2 mRNA; 5.0 μM): 67%
- Percent expression of AR in LNCaP cells cultured in CSS + DHT medium (AR mRNA [2]; 0.04 μM): 107%
- Percent expression of AR in LNCaP cells cultured in CSS + DHT medium (AR mRNA [2]; 0.2 μM): 121%
- Percent expression of AR in LNCaP cells cultured in CSS + DHT medium (AR mRNA [2]; 1 μM): 110%
- Percent expression of AR in LNCaP cells cultured in CSS + DHT medium (AR mRNA [2]; 5.0 μM): 113%
- Percent expression of AR in LNCaP cells cultured in CSS medium (AR mRNA [2]; 0.04 μM): 91%
- Percent expression of AR in LNCaP cells cultured in CSS medium (AR mRNA [2]; 0.2 μM): 67%
- Percent expression of AR in LNCaP cells cultured in CSS medium (AR mRNA [2]; 1 μM): 64%
- Percent expression of AR in LNCaP cells cultured in CSS medium (AR mRNA [2]; 5.0 μM): 77%
- Percent expression of AR in LNCaP cells cultured in complete medium (AR mRNA [2]; 0.2 μM): 133%
- Percent expression of AR in LNCaP cells cultured in complete medium (AR mRNA [2]; 1 μM): 121%
- Percent expression of AR in LNCaP cells cultured in complete medium (AR mRNA [2]; 5.0 μM): 139%
- inhibition at 1 µM (22RV1 cells): 5%
- Proliferation (% untreated control) in LNCaP cells cultured in CSS + DHT medium (LNCaP cells; 0.04 μM): 112 % untreated control
- Proliferation (% untreated control) in LNCaP cells cultured in CSS + DHT medium (LNCaP cells; 0.2 μM): 95 % untreated control
- Proliferation (% untreated control) in LNCaP cells cultured in CSS + DHT medium (LNCaP cells; 1 μM): 74 % untreated control
- Proliferation (% untreated control) in LNCaP cells cultured in CSS + DHT medium (LNCaP cells; 5.0 μM): 33 % untreated control
- proliferation of LNCaP cells (LNCaP cells; complete medium or CSS+1 nM DHT): reduced proliferation of the cells in a dose dependent compared to the control
- Proliferation (% untreated control) in LNCaP cells cultured in complete medium (LNCaP cells; 0.04 μM): 107 % untreated control
- Proliferation (% untreated control) in LNCaP cells cultured in complete medium (LNCaP cells; 0.2 μM): 88 % untreated control
- Proliferation (% untreated control) in LNCaP cells cultured in complete medium (LNCaP cells; 1 μM): 65 % untreated control
- Proliferation (% untreated control) in LNCaP cells cultured in complete medium (LNCaP cells; 5.0 μM): 45 % untreated control
